Where two headings read alike, the source gives them in different places.
How the values were obtained:
SARS-CoV-2 M^pro = SARS-CoV-2 M^pro (Severe acute respiratory syndrome coronavirus 2, UniProt P0DTD1); assay: biochemical; conditions: for inhibition against M^pro: concentration not given
[1] = MTT cytotoxic assay in Vero-E6 cells; format: cell-based; conditions: African green monkey
M^pro = conditions: repurposed drug; cited from earlier work
SARS-CoV-2 = conditions: cited from earlier work

O=C(O)CC[C@H](NC(=O)C1=C(C(F)(F)F)NC(=S)NC1c1ccc(C(F)(F)F)cc1)C(=O)O (stereo partly drawn) [8a]
IC50 (SARS-CoV-2 M^pro): 23.2 µM

O=C(O)C[C@H](NC(=O)C1=C(C(F)(F)F)NC(=S)NC1c1ccc(C(F)(F)F)cc1)C(=O)O (stereo partly drawn) [8b]
IC50 (SARS-CoV-2 M^pro): 44.7 ± 1.36 µM

O=C(Nc1ccc(S(=O)(=O)O)cc1)C1=C(C(F)(F)F)NC(=S)NC1c1ccc(C(F)(F)F)cc1 (stereo not drawn) [8c]
IC50 (SARS-CoV-2 M^pro): 28.2 µM

O=C(N[C@@H](Cc1c[nH]cn1)C(=O)O)C1=C(C(F)(F)F)NC(=S)NC1c1ccc(C(F)(F)F)cc1 (stereo partly drawn) [8d]
IC50 (SARS-CoV-2 M^pro): 30.7 µM

O=C(N[C@@H](Cc1ccc(O)cc1)C(=O)O)C1=C(C(F)(F)F)NC(=S)NC1c1ccc(C(F)(F)F)cc1 (stereo partly drawn) [8e]
IC50 (SARS-CoV-2 M^pro): 25.3 µM

O=C(O)CC[C@H](NC(=O)C1=C(C(F)(F)F)NC(=S)NC1c1ccc([N+](=O)[O-])cc1)C(=O)O (stereo partly drawn) [8f]
IC50 (SARS-CoV-2 M^pro): 36.8 µM

COC(=O)c1ccc(C2NC(=S)NC(C(F)(F)F)=C2C(=O)N[C@@H](Cc2c[nH]cn2)C(=O)O)cc1 (stereo partly drawn) [8h]
IC50 (SARS-CoV-2 M^pro): 34.9 µM

O=C(O)CC[C@H](NC(=O)C1=C(C(F)(F)F)NC(SC(=O)CN2CCn3c(nnc3C(F)(F)F)C2)=NC1c1ccc(C(F)(F)F)cc1)C(=O)O (stereo partly drawn) [12a, (6-(Trifluoromethyl)-2-((2-(3-(trifluoromethyl)-5,6-dihydro-[1,2,4]triazolo[4,3-a]-pyrazin-7(8H)-yl)acetyl)thio)-4-(4 (trifluoromethyl)phenyl)-1,4-dihydropyrimidine-5-carbonyl)-L-glutamic acid]
IC50 (SARS-CoV-2 M^pro): 0.15 µM

O=C(CN1CCn2c(nnc2C(F)(F)F)C1)SC1=NC(c2ccc(C(F)(F)F)cc2)C(C(=O)N[C@@H](Cc2c[nH]cn2)C(=O)O)=C(C(F)(F)F)N1 (stereo partly drawn) [12d, (6-(Trifluoromethyl)-2-((2-(3-(trifluoromethyl)-5,6-dihydro-[1,2,4]triazolo[4,3-a]pyrazin-7(8H)-yl)acetyl)thio)-4-(4-(trifluoromethyl)phenyl)-1,4-dihydropyrimidine-5-carbonyl)histidine]
IC50 (SARS-CoV-2 M^pro): 14.4 µM

O=C(CN1CCn2c(nnc2C(F)(F)F)C1)SC1=NC(c2ccc(C(F)(F)F)cc2)C(C(=O)N[C@@H](Cc2ccc(O)cc2)C(=O)O)=C(C(F)(F)F)N1 (stereo partly drawn) [12e, (6-(Trifluoromethyl)-2-((2-(3-(trifluoromethyl)-5,6-dihydro-[1,2,4]triazolo[4,3-a]-pyrazin-7(8H)-yl)acetyl)thio)-4-(4-(trifluoromethyl)phenyl)-1,4-dihydropyrimidine-5-carbonyl)-L-tyrosine]
IC50 (SARS-CoV-2 M^pro): 0.73 ± 0.04 µM

NC1CCCN(CC(=O)SC2=NC(c3ccc(C(F)(F)F)cc3)C(C(=O)N[C@@H](Cc3ccc(O)cc3)C(=O)O)=C(C(F)(F)F)N2)C1 (stereo partly drawn) [12g, (2-((2-(3-Aminopiperidin-1-yl)acetyl)thio)-6-(trifluoromethyl)-4-(4-(trifluoromethyl)-phenyl)-1,4-dihydropyrimidine-5-carbonyl)-L-tyrosine]
IC50 (SARS-CoV-2 M^pro): 0.21 ± 0.01 µM

CS(=O)(=O)n1cc2c(n1)CN(CC(=O)SC1=NC(c3ccc(C(F)(F)F)cc3)C(C(=O)N[C@@H](Cc3c[nH]cn3)C(=O)O)=C(C(F)(F)F)N1)C2 (stereo partly drawn) [12h, (2-((2-(2-(Methylsulfonyl)-2,6-dihydropyrrolo[3,4-c]pyrazol-5(4H)-yl)acetyl)thio)-6-(trifluoromethyl)-4-(4-(trifluoromethyl)phenyl)-1,4-dihydropyrimidine-5-carbonyl)histidine]
IC50 (SARS-CoV-2 M^pro): 16.3 µM

CS(=O)(=O)n1cc2c(n1)CN(CC(=O)SC1=NC(c3ccc(C(F)(F)F)cc3)C(C(=O)N[C@@H](Cc3ccc(O)cc3)C(=O)O)=C(C(F)(F)F)N1)C2 (stereo partly drawn) [12i, (2-((2-(2-(Methylsulfonyl)-2,6-dihydropyrrolo[3,4-c]pyrazol-5(4H)-yl)acetyl)thio)-6-(trifluoromethyl)-4-(4-(trifluoromethyl)phenyl)-1,4-dihydropyrimidine-5-carbonyl)-L-tyrosine]
CC50 at 48 h [1]: 243 µM

CS(=O)(=O)n1cc2c(n1)CN(CC(=O)SC1=NC(c3ccc([N+](=O)[O-])cc3)C(C(=O)N[C@@H](CCC(=O)O)C(=O)O)=C(C(F)(F)F)N1)C2 (stereo partly drawn) [12j, (2-((2-(2-(Methylsulfonyl)-2,6-dihydropyrrolo[3,4-c]pyrazol-5(4H)-yl)acetyl)thio)-4-(4-nitrophenyl)-6-(trifluoromethyl)-1,4-dihydropyrimidine-5-carbonyl)-L-glutamic acid]
IC50 (SARS-CoV-2 M^pro): 0.063 µM | inhibition against M^pro (SARS-CoV-2 M^pro): over 50% | CC50 at 48 h [1]: 211 µM

CS(=O)(=O)n1cc2c(n1)CN(CC(=O)SC1=NC(c3ccc([N+](=O)[O-])cc3)C(C(=O)Nc3ccc(S(=O)(=O)O)cc3)=C(C(F)(F)F)N1)C2 (stereo not drawn) [12k, 4-(2-((2-(2-(Methylsulfonyl)-2,6-dihydropyrrolo[3,4-c]pyrazol-5(4H)-yl)acetyl)thio)-4-(4-nitrophenyl)-6-(trifluoromethyl)-1,4-dihydropyrimidine-5-carboxamido)benzene-sulfonic acid]
IC50 (SARS-CoV-2 M^pro): 0.146 µM | CC50 at 48 h [1]: 239 µM

COC(=O)c1ccc(C2N=C(SC(=O)CN3CCn4c(nnc4C(F)(F)F)C3)NC(C(F)(F)F)=C2C(=O)N[C@@H](Cc2c[nH]cn2)C(=O)O)cc1 (stereo partly drawn) [12l, (4-(4-(Methoxycarbonyl)phenyl)-6-(trifluoromethyl)-2-((2-(3-(trifluoromethyl)-5,6-dihydro-[1,2,4]triazolo[4,3-a]pyrazin-7(8H)-yl)acetyl)thio)-1,4-dihydropyrimidine-5-carbonyl)-L-histidine]
IC50 (SARS-CoV-2 M^pro): 0.054 µM | inhibition against M^pro (SARS-CoV-2 M^pro): over 50% | CC50 at 48 h [1]: 198 µM

CC(C)(C)NC(=O)N[C@H](C(=O)N1C[C@H]2[C@@H]([C@H]1C(=O)NC(CC1CCC1)C(=O)C(N)=O)C2(C)C)C(C)(C)C (stereo partly drawn) [boceprevir]
IC50 (M^pro): 4.13 µM

Cn1cnc(Cn2c(=O)[nH]/c(=N\c3cc4cn(C)nc4cc3Cl)n(Cc3cc(F)c(F)cc3F)c2=O)n1 [ensitrelvir]
EC50 (SARS-CoV-2): 0.37 µM

CC(C)(C)[C@H](NC(=O)C(F)(F)F)C(=O)N1C[C@H]2[C@@H]([C@H]1C(=O)N[C@H](C#N)C[C@@H]1CCNC1=O)C2(C)C [nirmatrelvir]
EC50 (SARS-CoV-2; read-out: antiviral activity EC50): 0.074 µM

Reference: article PMC11864037 (RSC Advances, 2025)
